Our source for the IC50 values is US10030047B2 (Hoffmann-La Roche Inc., priority 2015, dated 2018).

Bounds are passed on as bounds.

The subject of one test is A. baumannii strain ATCC17978. Kind of test: 50% growth inhibitory concentration (IC50) determination, Iso-Sensitest broth. It is filed as cell-based. As to conditions: Acinetobacter baumannii, ATCC17978, 16 h, read-out: IC50 ATCC17978. The procedure, abridged:
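Twofold dilution series (e.g. 50 to 0.097 μM final) in Iso-Sensitest broth, inoculum ~5×10^(5) CFU/ml, incubated at 35±2° C. OD600 read every 20 min over 16 h; IC50 and IC90 calculated during logarithmic growth.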
`CN1C(=O)[C@H](CCCCN)NC(=O)[C@H](CCCN)NCc2cccnc2Sc2c(Cl)ccc(-c3ccc(C(=O)O)cc3)c2CNC(=O)[C@@H]1Cc1c[nH]c2ccccc12` [Example 239, 4-[(11S,14S,17S)-14-(4-Amino-butyl)-11-(3-amino-propyl)-25-chloro-17-(1H-indol-3-ylmethyl)-16-methyl-12,15,18-trioxo-2-thia-4,10,13,16,19-pentaaza-tricyclo[19.4.0.0*3,8*]pentacosa-1 (25),3(8),4,6,21,23-hexaen-22-yl]-benzoic acid]: the 50% inhibitory concentration (IC50) is less than 1000 nM.

Still in this test, the particulars now being: Acinetobacter baumannii; A. baumannii ATCC17978; Iso-Sensitest medium; OD 600 nm over 16 h; read-out: IC50 ATCC17978.
For the compound `COc1cc(-c2ccc3c(n2)CNC(=O)[C@H](Cc2c[nH]c4ccccc24)N(C)C(=O)[C@H](CCCCN)NC(=O)[C@H](CCCN)NCc2cccnc2S3)ccn1` [Example 217, (7S,10S,13S)-13-((1H-Indol-3-yl)methyl)-10-(4-aminobutyl)-7-(3-aminopropyl)-18-(2-methoxypyridin-4-yl)-12-methyl-6,7,9,10,12,13,15,16-octahydrodipyrido[2,3-b:2′,3′-p][1,5,8,11,14]thiatetraazacycloheptadecine-8,11,14(5H)-trione], the 50% inhibitory concentration (IC50) is 1000 nM.
The same measure, in the same setting: as for `CN1C(=O)[C@H](CCCCN)NC(=O)[C@H](CCCN)NCc2cccnc2Sc2ccc(N3CCOCC3)nc2CNC(=O)[C@@H]1Cc1c[nH]c2ccccc12` [Example 218, (7S,10S,13S)-13-((1H-Indol-3-yl)methyl)-10-(4-aminobutyl)-7-(3-aminopropyl)-12-methyl-18-morpholino-6,7,9,10,12,13,15,16-octahydrodipyrido[2,3-b:2′,3′-p][1,5,8,11,14]thiatetraazacycloheptadecine-8,11,14(5H)-trione], the figure is 2000 nM; as for `CN1C(=O)[C@H](CCCCN)NC(=O)[C@H](CCCN)NCc2ccc(Br)cc2Sc2c(Cl)cccc2CNC(=O)[C@@H]1Cc1c[nH]c2ccccc12` [Example 219, (12S,15S,18S)-15-(4-Amino-butyl)-18-(3-amino-propyl)-24-bromo-4-chloro-12-(1H-indol-3-ylmethyl)-13-methyl-2-thia-10,13,16,19-tetraaza-tricyclo[19.4.0.0*3,8*]pentacosa-1(25),3,5,7,21,23-hexaene-11,14,17-trione], 600 nM.
On the same count and under the same terms, as for `CN1C(=O)[C@H](CCCCN)NC(=O)[C@H](CCCN)NCc2ccc(-c3ccccc3)cc2Sc2c(Cl)cccc2CNC(=O)[C@@H]1Cc1c[nH]c2ccccc12` [Example 220, (12S,15S,18S)-15-(4-Amino-butyl)-18-(3-amino-propyl)-4-chloro-12-(1H-indol-3-ylmethyl)-13-methyl-24-phenyl-2-thia-10,13,16,19-tetraaza-tricyclo[19.4.0.0*3,8*]pentacosa-1(25),3,5,7,21,23-hexaene-11,14,17-trione], the figure is 5800 nM; as for `CN1C(=O)[C@H](CCCCN)NC(=O)[C@H](CCCN)NCc2cc(Br)cnc2Sc2ccccc2CNC(=O)[C@@H]1Cc1c[nH]c2ccccc12` [Example 236, (7S,10S,13S)-13-((1H-Indol-3-yl)methyl)-10-(4-aminobutyl)-7-(3-aminopropyl)-3-bromo-12-methyl-6,7,9,10,12,13,15,16-octahydrobenzo[b]pyrido[3,2-p][1,5,8,11,14]thiatetraazacycloheptadecine-8,11,14(5H)-trione], 3200 nM.
Consider `CN(C)c1nccc2c1CNC(=O)[C@H](Cc1c[nH]c3ccccc13)N(C)C(=O)[C@H](CCCCN)NC(=O)[C@H](CCCN)NCc1cccnc1S2` [Example 237, (7S,10S,13S)-13-((1H-Indol-3-yl)methyl)-10-(4-aminobutyl)-7-(3-aminopropyl)-17-(dimethylamino)-12-methyl-6,7,9,10,12,13,15,16-octahydrodipyrido [2,3-b:3′,4′-p][1,5,8,11,14]thiatetraazacycloheptadecine-8,11,14(5H)-trione], for which the half-inhibitory concentration (IC50) is 800 nM.
For the compound `CN1C(=O)[C@H](CCCCN)NC(=O)[C@H](CCCN)NCc2cccnc2Sc2ccnc(-c3cccnc3)c2CNC(=O)[C@@H]1Cc1c[nH]c2ccccc12` [Example 238, (7S,10S,13S)-13-((1H-Indol-3-yl)methyl)-10-(4-aminobutyl)-7-(3-aminopropyl)-12-methyl-17-(pyridin-3-yl)-6,7,9,10,12,13,15,16-octahydrodipyrido[2,3-b:3′,4′-p][1,5,8,11,14]thiatetraazacycloheptadecine-8,11,14(5H)-trione], the IC50 worked out at 5600 nM.
On to `CN1C(=O)[C@H](CCCCN)NC(=O)[C@H](CCCN)NCc2cccnc2Sc2c(Cl)ccc(-c3ccc(OCC(O)CO)cc3)c2CNC(=O)[C@@H]1Cc1c[nH]c2ccccc12` (stereo partly drawn) [Example 240, (11S,14S,17S)-14-(4-Amino-butyl)-11-(3-amino-propyl)-25-chloro-22-[4-(2,3-dihydroxy-propoxy)-phenyl]-17-(1H-indol-3-ylmethyl)-16-methyl-2-thia-4,10,13,16,19-pentaaza-tricyclo[19.4.0.0*3,8*]pentacosa-1(25),3(8),4,6,21,23-hexaene-12,15,18-trione], for which the half-maximal inhibitory concentration (IC50) is less than 100 nM.
Turning to `CN1C(=O)[C@H](CCCCN)NC(=O)[C@H](CCCN)NCc2cccnc2Sc2c(Cl)ccc(-c3ccc(OCC(=O)O)cc3)c2CNC(=O)[C@@H]1Cc1c[nH]c2ccccc12` [Example 241, {4-[(11S,14S,17S)-14-(4-Amino-butyl)-11-(3-amino-propyl)-25-chloro-17-(1H-indol-3-ylmethyl)-16-methyl-12,15,18-trioxo-2-thia-4,10,13,16,19-pentaaza-tricyclo[19.4.0.0*3,8*]pentacosa-1(25),3(8),4,6,21,23-hexaen-22-yl]-phenoxy}-acetic acid], the half-maximal inhibitory concentration (IC50) is less than 200 nM.
With `CN1C(=O)[C@H](CCCCN)NC(=O)[C@H](CCCN)NCc2cccnc2Sc2c(Cl)ccc(-c3ccc(OC4CCNCC4)cc3)c2CNC(=O)[C@@H]1Cc1c[nH]c2ccccc12` [Example 242, (11S,14S,17S)-14-(4-Amino-butyl)-11-(3-amino-propyl)-25-chloro-17-(1H-indol-3-ylmethyl)-16-methyl-22-[4-(piperidin-4-yloxy)-phenyl]-2-thia-4,10,13,16,19-pentaaza-tricyclo[19.4.0.0*3,8*]pentacosa-1(25),3(8),4,6,21,23-hexaene-12,15,18-trione], the half-inhibitory concentration (IC50) is less than 200 nM.
For the compound `CN1C(=O)[C@H](CCCCN)NC(=O)[C@H](CCCN)NCc2cccnc2Sc2c(Cl)ccc(-c3ccc(CN)cc3)c2CNC(=O)[C@@H]1Cc1c[nH]c2ccccc12` [Example 243, (11S,14S,17S)-14-(4-Amino-butyl)-22-(4-aminomethyl-phenyl)-11-(3-amino-propyl)-25-chloro-17-(1H-indol-3-ylmethyl)-16-methyl-2-thia-4,10,13,16,19-pentaaza-tricyclo[19.4.0.0*3,8*]pentacosa-1(25),3(8),4,6,21,23-hexaene-12,15,18-trione], the half-inhibitory concentration (IC50) is less than 100 nM.
Still for that read-out and setting: next, `CN1C(=O)[C@H](CCCCN)NC(=O)[C@H](CCCN)NCc2cccnc2Sc2c(Cl)ccc(-c3cccc(CCN)c3)c2CNC(=O)[C@@H]1Cc1c[nH]c2ccccc12` [Example 244, (11S,14S,17S)-14-(4-Amino-butyl)-22-[3-(2-amino-ethyl)-phenyl]-11-(3-amino-propyl)-25-chloro-17-(1H-indol-3-ylmethyl)-16-methyl-2-thia-4,10,13,16,19-pentaaza-tricyclo[19.4.0.0*3,8*]pentacosa-1(25),3(8),4,6,21,23-hexaene-12,15,18-trione]: less than 400 nM.
In the case of `CN1C(=O)[C@H](CCCCN)NC(=O)[C@H](CCCN)NCc2cccnc2Sc2c(Cl)ccc(-c3ccc(N4CCNCC4)cc3)c2CNC(=O)[C@@H]1Cc1c[nH]c2ccccc12` [Example 245, (11S,14S,17S)-14-(4-Amino-butyl)-11-(3-amino-propyl)-25-chloro-17-(1H-indol-3-ylmethyl)-16-methyl-22-(4-piperazin-1-yl-phenyl)-2-thia-4,10,13,16,19-pentaaza-tricyclo[19.4.0.0*3,8*]pentacosa-1(25),3(8),4,6,21,2-hexaene-12,15,18-trione], the IC50 was less than 100 nM.
On to `CN1C(=O)[C@H](CCCCN)NC(=O)[C@H](CCCN)NCc2cccnc2Sc2c(Cl)ccc(-c3ccc(S(=O)(=O)NCCO)cc3)c2CNC(=O)[C@@H]1Cc1c[nH]c2ccccc12` [Example 246, 4-[(11S,14S,17S)-14-(4-Amino-butyl)-11-(3-amino-propyl)-25-chloro-17-(1H-indol-3-ylmethyl)-16-methyl-12,15,18-trioxo-2-thia-4,10,13,16,19-pentaaza-tricyclo[19.4.0.0*3,8*]pentacosa-1(25),3(8),4,6,21,23-hexaen-22-yl]-N-(2-hydroxy-ethyl)-benzenesulfonamide], for which the IC50 was less than 100 nM.
Same read-out and setting: as for `CN1C(=O)[C@H](CCCCN)NC(=O)[C@H](CCCN)NCc2cccnc2Sc2c(Cl)ccc(-c3ccc(C(=O)NCCO)cc3)c2CNC(=O)[C@@H]1Cc1c[nH]c2ccccc12` [Example 247, 4-[(11S,14S,17S)-14-(4-Amino-butyl)-11-(3-amino-propyl)-25-chloro-17-(1H-indol-3-ylmethyl)-16-methyl-12,15,18-trioxo-2-thia-4,10,13,16,19-pentaaza-tricyclo[19.4.0.0*3,8*]pentacosa-1(25),3(8),4,6,21,23-hexaen-22-yl]-N-(2-hydroxy-ethyl)-benzamide], the figure is less than 100 nM; as for `CN(C)CCNC(=O)c1ccc(-c2ccc(Cl)c3c2CNC(=O)[C@H](Cc2c[nH]c4ccccc24)N(C)C(=O)[C@H](CCCCN)NC(=O)[C@H](CCCN)NCc2cccnc2S3)cc1` [Example 248, 4-[(11S,14S,17S)-14-(4-Amino-butyl)-11-(3-amino-propyl)-25-chloro-17-(1H-indol-3-ylmethyl)-16-methyl-12,15,18-trioxo-2-thia-4,10,13,16,19-pentaaza-tricyclo[19.4.0.0*3,8*]pentacosa-1(25),3(8),4,6,21,23-hexaen-22-yl]-N-(2-dimethylamino-ethyl)-benzamide], less than 100 nM.

A word on the IC50: it is the concentration that inhibits the measured activity by half.
